PMC7887271, “Fast acting allosteric phosphofructokinase inhibitors block trypanosome glycolysis and cure acute African trypanosomiasis in mice” (Nature Communications, 2021)

Legend:
[1] = Experimentally determined pKa and logP (Pharmorphix); assay type: physicochemical
Description: pKa and […] values for selected CTCB compounds were determined experimentally by the company Pharmorphix (www.matthey.com) and calculated pKas were determined using ChemAxon.software (https://chemaxon.com).

[2] = target: T1, hPFK-P (Homo sapiens, UniProt Q01813); test: ALDO/G3PDH/TIM linked enzyme assay, human PFK-P; assay type: biochemical; details: aldolase/TIM linked assay, 25 °C; highest concentration 100 µM
T1 construct: made in house; host or cells: PFK-deficient Saccharomyces cerevisiae
T1 sequence (Q01813 1-784): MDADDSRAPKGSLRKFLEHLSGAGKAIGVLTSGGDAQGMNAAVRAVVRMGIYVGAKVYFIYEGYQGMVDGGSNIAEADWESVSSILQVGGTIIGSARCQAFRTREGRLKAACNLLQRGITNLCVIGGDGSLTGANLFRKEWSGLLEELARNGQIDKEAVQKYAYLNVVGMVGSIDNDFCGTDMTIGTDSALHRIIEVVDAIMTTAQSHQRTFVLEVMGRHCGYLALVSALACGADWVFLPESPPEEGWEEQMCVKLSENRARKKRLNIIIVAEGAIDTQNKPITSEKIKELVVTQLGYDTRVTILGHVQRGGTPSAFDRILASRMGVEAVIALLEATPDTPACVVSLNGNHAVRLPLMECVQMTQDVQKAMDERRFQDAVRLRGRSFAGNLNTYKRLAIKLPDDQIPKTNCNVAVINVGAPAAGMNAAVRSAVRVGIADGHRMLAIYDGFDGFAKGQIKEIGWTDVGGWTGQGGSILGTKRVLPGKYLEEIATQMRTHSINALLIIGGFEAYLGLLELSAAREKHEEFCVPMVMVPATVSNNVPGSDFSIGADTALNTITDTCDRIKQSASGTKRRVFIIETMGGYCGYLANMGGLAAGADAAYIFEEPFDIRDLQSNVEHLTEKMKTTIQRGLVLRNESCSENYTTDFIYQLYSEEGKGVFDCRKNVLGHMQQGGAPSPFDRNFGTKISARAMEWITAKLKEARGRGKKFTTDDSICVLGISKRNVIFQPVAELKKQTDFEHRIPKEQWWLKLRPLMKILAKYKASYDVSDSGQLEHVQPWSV
Description: (§1) Enzyme activity was measured using an aldolase/TIM linked assay at 25 °C. […] Experiments were carried out in duplicate. Data are presented as mean values ± standard deviation. […] Source data are provided as a Source Data File. b Kill time of CTCB-405 compared with existing HAT drugs in the clinic. […] Over 99% of trypanosomes were killed in under 30 min compared with much slower killing rates for the other drugs. The points on the graph for CTCB-405 were determined from two independent biological replicate experiments with each time point measured twice (using duplicate technical replicates). The ESD for each point on the graph is between 0.7 and 1.4%. For drugs in clinical use each point on the graph is the average of two technical replicates from one experiment (with a maximum difference of 7.8% for any of the points). Source data are provided as a Source Data File.
(§2) In the PFK/PYK/LDH assay, the linked PYK activity acts to convert the ADP produced by PFK back to ATP. As ATP is an inhibitor of human PFK (but not TbPFK) at concentrations higher than ~0.5 mM the regeneration of ATP is likely to affect the assay readout. […] TIM interconverts GA3P and DHAP, and DHAP is reduced to glycerol 3-phosphate by G3PD, alongside the oxidation of NADH to NAD^+, which was measured by observing the change in UV absorbance at 340 nm for 10 minutes at 25° C using a Spectramax© M5 Multimode plate reader. […]

[3] = target: T2, hPFK-M (Homo sapiens, UniProt P08237); test: ALDO/G3PDH/TIM linked enzyme assay, human PFK-M; assay type: biochemical; details: aldolase/TIM linked assay, 25 °C; highest concentration 100 µM
T2 construct: made in house; host or cells: PFK-deficient Saccharomyces cerevisiae
T2 sequence (P08237 1-780): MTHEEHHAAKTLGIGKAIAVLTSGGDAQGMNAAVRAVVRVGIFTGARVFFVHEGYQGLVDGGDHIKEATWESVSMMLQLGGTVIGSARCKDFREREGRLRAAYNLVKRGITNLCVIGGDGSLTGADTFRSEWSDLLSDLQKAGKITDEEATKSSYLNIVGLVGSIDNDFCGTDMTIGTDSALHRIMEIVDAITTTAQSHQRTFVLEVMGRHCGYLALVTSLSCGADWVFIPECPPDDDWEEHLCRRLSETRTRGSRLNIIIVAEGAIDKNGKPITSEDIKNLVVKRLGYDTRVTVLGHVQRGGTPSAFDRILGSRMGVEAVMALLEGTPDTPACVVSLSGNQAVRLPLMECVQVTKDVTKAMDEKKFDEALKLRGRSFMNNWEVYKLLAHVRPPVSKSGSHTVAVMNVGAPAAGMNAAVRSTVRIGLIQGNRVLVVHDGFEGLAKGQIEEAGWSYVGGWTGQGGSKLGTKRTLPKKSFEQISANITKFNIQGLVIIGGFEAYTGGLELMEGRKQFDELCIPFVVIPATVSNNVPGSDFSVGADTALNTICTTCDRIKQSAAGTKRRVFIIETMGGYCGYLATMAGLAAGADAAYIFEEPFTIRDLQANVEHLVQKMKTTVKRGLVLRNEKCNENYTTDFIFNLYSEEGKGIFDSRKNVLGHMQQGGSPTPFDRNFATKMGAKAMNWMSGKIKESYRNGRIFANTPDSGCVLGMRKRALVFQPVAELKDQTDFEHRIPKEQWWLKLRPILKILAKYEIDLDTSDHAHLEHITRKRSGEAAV
Description: as §1, §2

[4] = Human hepatocytes intrinsic clearance; assay type: in vitro ADME
From the text: Methods are described in Supplementary Methods 5 and 6. Enzyme assay results are means ± SD in multiple assays. ADME results are averages of n = 2 or 3 measurements in individual assays.

CN(C)CCn1ccc2c(ccn2Cc2ccc(Cl)c(Cl)c2)c1=O [CTCB-405, 1-[(3,4-Dichlorophenyl)methyl]-5-[2-(dimethylamino)ethyl] pyrrolo[3,2-c]pyridin-4-one]
logP ([1]; read-out: Measured logP): 3.29
pKa ([1]; read-out: Measured pKa): 8.09
inhibition of hPFK-P [2]: no significant inhibition
inhibition of hPFK-M [3]: no significant inhibition
Human hepatocytes Clint [4]: 2.3 µL min^−1 per 10^6 cells
